Blank lines part the entries; values can stand above or below the compound they belong to. Residues, ends and D or L forms follow the SMILES beside them.
Experiments:
[1] = target: Angiotensin-converting enzyme 2 (Homo sapiens, UniProt Q9BYF1); experiment: Binding affinity to angiotensin converting enzyme 2
[2] = target: T1, Deoxyribonuclease-2-alpha (Homo sapiens, UniProt O00115); experiment: Binding affinity to Dnase 2
T1 sequence (O00115 whole entry): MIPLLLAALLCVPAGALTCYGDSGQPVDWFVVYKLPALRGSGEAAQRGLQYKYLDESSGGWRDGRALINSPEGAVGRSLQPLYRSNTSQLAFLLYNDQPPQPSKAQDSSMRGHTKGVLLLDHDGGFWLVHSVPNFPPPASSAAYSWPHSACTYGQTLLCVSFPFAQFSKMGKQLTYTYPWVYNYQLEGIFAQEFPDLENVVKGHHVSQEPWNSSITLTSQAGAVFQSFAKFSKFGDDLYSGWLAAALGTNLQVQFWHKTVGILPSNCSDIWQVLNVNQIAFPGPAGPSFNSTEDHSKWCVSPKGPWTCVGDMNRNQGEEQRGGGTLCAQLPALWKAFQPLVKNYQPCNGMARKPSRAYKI

[3] = Binding affinity to beta-lactamase
[4] = target: Receptor tyrosine-protein kinase erbB-2 (Homo sapiens, UniProt P04626); experiment: Binding affinity to ErbB-2
[5] = Binding affinity to urease

Sequence of Angiotensin-converting enzyme 2 (Q9BYF1 whole entry): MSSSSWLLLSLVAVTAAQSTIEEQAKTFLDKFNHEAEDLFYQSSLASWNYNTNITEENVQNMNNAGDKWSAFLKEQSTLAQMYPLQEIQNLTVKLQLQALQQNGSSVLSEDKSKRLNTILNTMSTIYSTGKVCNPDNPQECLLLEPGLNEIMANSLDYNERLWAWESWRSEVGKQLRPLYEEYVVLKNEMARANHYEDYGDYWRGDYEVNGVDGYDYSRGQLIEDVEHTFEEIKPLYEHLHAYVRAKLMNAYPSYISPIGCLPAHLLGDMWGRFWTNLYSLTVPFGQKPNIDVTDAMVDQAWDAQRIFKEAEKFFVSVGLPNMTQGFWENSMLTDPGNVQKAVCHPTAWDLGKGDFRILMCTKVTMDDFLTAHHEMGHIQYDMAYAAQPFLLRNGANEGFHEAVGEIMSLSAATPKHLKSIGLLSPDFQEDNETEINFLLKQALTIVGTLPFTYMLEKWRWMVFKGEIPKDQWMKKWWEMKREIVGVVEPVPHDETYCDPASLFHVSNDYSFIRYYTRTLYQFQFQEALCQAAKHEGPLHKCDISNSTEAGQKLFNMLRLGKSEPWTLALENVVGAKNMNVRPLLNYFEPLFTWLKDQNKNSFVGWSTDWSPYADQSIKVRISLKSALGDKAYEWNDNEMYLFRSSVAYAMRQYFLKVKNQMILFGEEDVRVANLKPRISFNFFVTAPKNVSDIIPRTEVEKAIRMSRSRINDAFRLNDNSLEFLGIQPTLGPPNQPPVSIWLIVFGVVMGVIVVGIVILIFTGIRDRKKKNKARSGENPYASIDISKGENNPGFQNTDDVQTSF
Sequence of Receptor tyrosine-protein kinase erbB-2 (P04626 whole entry): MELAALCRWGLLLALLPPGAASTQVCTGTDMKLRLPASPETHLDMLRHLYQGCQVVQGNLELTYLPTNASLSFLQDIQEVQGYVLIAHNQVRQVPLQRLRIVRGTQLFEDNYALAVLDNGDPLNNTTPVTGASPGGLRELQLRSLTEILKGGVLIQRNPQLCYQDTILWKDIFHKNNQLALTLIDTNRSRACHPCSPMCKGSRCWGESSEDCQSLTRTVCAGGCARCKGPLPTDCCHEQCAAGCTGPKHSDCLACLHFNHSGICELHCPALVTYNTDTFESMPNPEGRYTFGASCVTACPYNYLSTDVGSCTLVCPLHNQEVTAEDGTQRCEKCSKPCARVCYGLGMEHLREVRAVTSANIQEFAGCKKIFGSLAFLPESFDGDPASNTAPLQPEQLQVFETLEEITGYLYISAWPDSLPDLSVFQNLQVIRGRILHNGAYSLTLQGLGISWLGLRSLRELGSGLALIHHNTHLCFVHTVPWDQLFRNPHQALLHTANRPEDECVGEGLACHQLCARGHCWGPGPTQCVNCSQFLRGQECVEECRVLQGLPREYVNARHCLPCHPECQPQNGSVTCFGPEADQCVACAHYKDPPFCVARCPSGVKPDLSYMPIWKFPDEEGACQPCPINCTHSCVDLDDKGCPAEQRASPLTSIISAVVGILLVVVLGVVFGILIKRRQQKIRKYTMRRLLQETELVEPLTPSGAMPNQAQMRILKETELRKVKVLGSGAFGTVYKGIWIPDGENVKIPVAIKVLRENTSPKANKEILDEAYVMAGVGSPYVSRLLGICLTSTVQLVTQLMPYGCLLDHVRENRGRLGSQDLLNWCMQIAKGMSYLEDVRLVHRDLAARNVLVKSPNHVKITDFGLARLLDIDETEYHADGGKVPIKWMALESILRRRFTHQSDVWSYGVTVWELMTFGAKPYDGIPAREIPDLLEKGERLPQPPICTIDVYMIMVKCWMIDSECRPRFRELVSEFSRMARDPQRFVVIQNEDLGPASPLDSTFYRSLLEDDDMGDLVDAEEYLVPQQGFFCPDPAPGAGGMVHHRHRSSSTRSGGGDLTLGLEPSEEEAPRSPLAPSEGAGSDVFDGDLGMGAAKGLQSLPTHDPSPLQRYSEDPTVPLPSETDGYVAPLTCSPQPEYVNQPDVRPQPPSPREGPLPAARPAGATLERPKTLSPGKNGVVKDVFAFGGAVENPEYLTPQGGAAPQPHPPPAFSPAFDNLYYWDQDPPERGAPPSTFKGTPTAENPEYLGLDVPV

Ki [1]: 2.8 nM
Compound: CC(C)C[C@H](NC(=O)[C@@H]1CCCN1C(=O)[C@H](CO)NC(=O)[C@H](CS)NC(=O)[C@H](Cc1cnc[nH]1)NC(=O)[C@H](CO)NC(=O)[C@H](Cc1ccc(O)cc1)NC(=O)[C@@H](CC(=O)O)NC(=O)CN)C(=O)N[C@@H](CCCNC(=N)N)C(=O)N[C@@H](Cc1ccc(O)cc1)C(=O)N[C@@H](Cc1ccc(O)cc1)C(=O)N1CCC[C@H]1C(=O)N[C@@H](Cc1c[nH]c2ccccc12)C(=O)N[C@@H](Cc1c[nH]c2ccccc12)C(=O)N[C@@H](CCCCN)C(=O)N[C@@H](CS)C(=O)N[C@H](C(=O)N[C@@H](Cc1ccc(O)cc1)C(=O)N1CCC[C@H]1C(=O)N[C@@H](CC(=O)O)C(=O)N1CCC[C@H]1C(=O)O)[C@@H](C)O

Ki [2]: 200 nM
Compound: CC(C)C[C@H](NC(=O)[C@H](Cc1ccccc1)NC(=O)[C@H](Cc1c[nH]c2ccccc12)NC(=O)[C@H](CCC(N)=O)NC(=O)[C@H](CC(C)C)NC(=O)[C@H](CC(C)C)NC(=O)[C@H](CCCN=C(N)N)NC(=O)[C@H](CC(C)C)NC(=O)[C@@H](N)CS)C(=O)N[C@@H](Cc1c[nH]c2ccccc12)C(=O)N[C@@H](C)C(=O)N[C@@H](CS)C(=O)O (H-CLRLLQWFLWAC-OH)

IC50 [3]: 9 µM
Compound: CC(C)[C@H](NC(=O)[C@@H](N)CS)C(=O)N[C@@H](Cc1cnc[nH]1)C(=O)N[C@@H](CO)C(=O)N1CCC[C@H]1C(=O)N[C@@H](CC(N)=O)C(=O)N[C@@H](CCCNC(=N)N)C(=O)N[C@@H](CCC(=O)O)C(=O)N[C@@H](CS)C(=O)O (H-CVHSPNREC-OH)

Ki [4]: 30 µM
Compound: CC(C)C[C@H](NC(=O)[C@H](CO)NC(=O)[C@H](Cc1ccc(O)cc1)NC(=O)[C@H](CS)NC(=O)[C@H](CS)NC(=O)[C@@H](N)CCCCN)C(=O)O (H-KCCYSL-OH)

Compound: H-YDFYWW-OH
IC50 [5]: 30 µM

Reference: ChEMBL document CHEMBL1240344, “Phage-encoded combinatorial chemical libraries based on bicyclic peptides” (Nat Chem Biol, 2009)
